# B1: carbonyl reductase: Carbonyl reductase purified from Ogataea minuta var. nonfermentans IFO 1473, amino acid sequence SEQ ID NO: 1, about 27,000 Da by SDS-PAGE (protein)
# chain: MAKTVYFIAGASRGIGLEVASQLSANPDNYVIASYRSEKSASGLLELAKKDNVDTIVLDIASQESIDAVPAQISKLTDGIDVALINAGIANAMCPILECSRESYTDHWTTNALGPIMLYQAIHKFMLQRETRKVFFTTSAGGSIQAKIPVPVSGYGMSKAALNYAVRKLADECYKDNFTIVLLHPGFVKTDMGQSAIQKMSNGNAELLAYIDSMTIDVPTSAGQIVGAIMTLDKQSSGRFINAADQFDMPF
# modifications: Ogataea minuta var nonfermentans
# Tested on: carbonyl reductase
# Assay: Reduction activity of the enzyme on various ketones and aldehyde (initial rate of NADPH decrease)
# Assay type: biochemical, Ogataea minuta var. nonfermentans IFO 1473
# Conditions: pH 7
row,Molecule,Specific activity (%)
1,CC(=O)c1ccc(Cl)cc1 [p-Chloro-acetophenone],10.2
2,CC(=O)C(C)=O [Diacetyl],12.3
3,O=C1CCCCC1Cl (centres unmarked) [2-Chloro-cyclohexanone],163.0
4,"O=C(c1ccccc1)C(F)(F)F [2,2,2-Trifluoro-acetophenone]",100.0
5,O=C(CCl)c1ccccc1 [2-Chloro-acetophenone],19.6
6,CC(=O)c1cccc(Cl)c1 [m-Chloro-acetophenone],30.7
7,N#CCCc1ccccc1 [Benzylacetonitrile],25.9
8,CCC(=O)c1ccccc1 [Propiophenone],18.8

# Same assay, conditions: relative to 2,2,2-trifluoroacetophenone defined as 100; NADPH, 0.1 M phosphate buffer pH 7.0
row,Molecule,Specific activity (%)
1,CCOC(=O)C(=O)C(C)C [Ethyl-3-methyl-2-oxobutanoate],72.1
2,O=Cc1ccccc1[N+](=O)[O-] [o-Nitrobenzaldehyde],52.6
3,CC(=O)c1cccc(Br)c1 [m-Bromo-acetophenone],21.3
4,CC1(Cl)CCCCC1=O (centres unmarked) [2-Chloro-2-Methyl-cyclohexanone],105.4
5,O=Cc1cccc([N+](=O)[O-])c1 [m-Nitrobenzaldehyde],45.6
6,O=Cc1cccc(Cl)c1 [m-Chlorobenzaldehyde],14.3
7,CC1(C)COC(=O)C1=O [α-Keto-pantolactone],26.3
8,O=Cc1ccc(Cl)cc1 [p-Chlorobenzaldehyde],15.2
9,CCOC(=O)CC(=O)c1ccccc1 [Ethyl benzoylacetate],10.9
10,O=Cc1ccccc1Cl [o-Chlorobenzaldehyde],81.2

# Tested on: carbonyl reductase
# Assay: 2,2,2-trifluoroacetophenone reducing activity after treating the enzyme with various reagents
# Assay type: biochemical, Ogataea minuta var. nonfermentans IFO 1473
# Conditions: enzyme treated at 30° C. for 10 minutes
# Description: Further, the enzyme was treated in various reagents at 30° C. for 10 minutes and then 2,2,2-trifluoroacetophenone reducing activity was measured.
row,Molecule,activity of enzyme in the presence of reagent
1,[Cl][Pb][Cl] [lead chloride],considerably inhibited
2,O=[N+]([O-])[O-].[Hg+] [mercury nitrate],considerably inhibited

# Tested on: carbonyl reductase
# Assay: Temperature stability of the enzyme (residual 2,2,2-trifluoroacetophenone reducing activity)
# Assay type: biochemical, Ogataea minuta var. nonfermentans IFO 1473
# Conditions: 50° C. or more, 10 minutes, 20 mM phosphate buffer pH 7.0
row,Molecule,residual activity
1,B1,rapidly deactivated

# Same assay, conditions: 70° C., 10 minutes, 20 mM phosphate buffer pH 7.0
row,Molecule,residual activity
1,B1,lost the activity completely

# Same assay, conditions: up to 40° C., 10 minutes, 20 mM phosphate buffer pH 7.0
row,Molecule,residual activity [%]
1,B1,≥ 79

# — patent US7335757B2, “Carbonyl reductase, gene encoding the same, and process for producing optically active alcohols using the same” (Mitsubishi Chemical Corporation, priority 2002, dated 2008)
